Structures are written as SMILES. pEC50: −log10 of the molar value.

For one data set, the system named is HIV-1 Bal. The data set can be described thus: Drug susceptibility assay, PM-1 cells infected with HIV-1 Bal, combinations with CCR5 inhibitors (p24 assay). The data set is classed as cell-based. Particulars: for Combination Indices at % HIV Inhibition (Confidence Interval) 50% / Combination Indices at % HIV Inhibition (Confidence Interval) 75% / Combination Indices at % HIV Inhibition (Confidence Interval) 90%: 95% confidence interval in parentheses. How it is done: (§1) Virus and cell lines. The T-cell lines, MT-2 and PM-1 were obtained through the AIDS Research and Reference Reagent Program, NIAID, and were contributed by Dr. D. Richman and Dr. R. Gallo, respectively. Both cell lines were cultured in RPMI 1640 medium supplemented with 10% fetal bovine serum, 2 mM L-glutamine and sub-cultured twice a week. The LAI strain of HIV-1 was obtained from the Fred Hutchinson Cancer Research Center, and the Bal strain was from NIH. Both virus stocks were amplified and titered in MT-2 cells (LAI) and PM-1 cells (Bal) using a virus infectivity assay.
(§2) Drug Susceptibility and Cytotoxicity Assays. For drug susceptibility assays, MT-2 cells were infected with HIV-1 LAI (or PM-1 cells with HIV-1 Bal) at an MOI of 0.005, and seeded into 96-well microtiter plates (0.1×10^6 cells/ml) containing serial dilutions of test compounds. […] Each drug ratio consisted of an array of 3-fold serial dilutions, and was performed in quadruplicate. The plates were incubated at 37° C./5% CO2. The MT-2 cells infected with HIV-1 LAI were incubated for 5 days. On day-five post-infection, 20 μl from each well was harvested and quantitated by a reverse transcriptase (RT) assay, or in samples involving non-nucleoside RT inhibitors, an MTS assay. The PM-1 cells infected with HIV-1 Bal and used for studying the combinations with CCR5 inhibitors were incubated for six days. On day-six post-infection, 20 μl from each well was harvested, 20- and 50-fold diluted and quantitated by p24 assay. Cytotoxicity assays were performed using uninfected cells, exposed to the same drug combinations, and incubated for six days. Cell viability was determined by an MTS assay. The CC50 values were calculated by using the exponential form of the median effect equation as mentioned below for calculation of EC50.
(§3) Analysis of Drug Combination Effects. For determination of CI values, drugs were diluted in a fixed ratio and multiple ratios were analyzed. The drug serial dilutions spanned a range of concentrations near the EC50 value of each compound, so that equivalent antiviral activities could be compared. Concentration-response curves were estimated for each individual drug and every combination using the median-effect equation. The equation was fit using a nonlinear regression routine (Proc Nlin) in PC SAS version 8.01 (SAS Institute Inc., SAS Version 8.01, Cary, N.C.: SAS Institute Inc., 1990).
(§4) In this equation, Fa stands for “fraction affected,” and represents the fraction of the viral load that has been inactivated. […] ED50 is drug concentration that is expected to reduce the amount of virus by 50%, and m is a parameter that reflects the slope of the concentration-response curve.
(§5) To assess antiviral effects of different drug combination treatments, combination indices (CIs) were calculated according to Chou and Rideout. The combination index was computed as CI=[D]1/[Dm]1+[D]2/[Dm]2
(§6) In this equation [Dm]1 and [Dm]2 are the concentrations of drugs that would individually produce a specific level of effect, while [D]1 and [D]2 are the concentrations of drugs in combination that would produce the same level of effect.
(§7) Theoretically, additivity is implied if the CI is equal to one, synergy if the CI is less than one, and antagonism if the CI is greater than one. […] At best, we can construct a range that contains the likely values for the CI, given the noise in the data. In this report, these ranges are reported in parentheses next to each point estimate of the CI. […] If the range fell entirely above 1.0, we would infer antagonistic behavior. If the range were to include 1.0, we would infer additivity.
(§8) In carrying out the combination experiments below, the EC50 for Compound 1 and each comparator compound was determined during the course of each study, and used in the subsequent data analysis.

For the next data set, the system named is uninfected cells. The data set can be described thus: Cytotoxicity assay of drug combinations, uninfected cells, MTS assay. Particulars: Compound 1 + other drug at the highest concentrations tested, 6 days. Type of data set: cell-based. How it is done:
as §2, with “Assays.” for “Assays. For drug susceptibility assays, MT-2 cells were infected with HIV-1 LAI (or PM-1 cells with HIV-1 Bal) at an MOI of 0.005, and seeded into 96-well microtiter plates (0.1×10^6 cells/ml) containing serial dilutions of test compounds.”, “The MT-2 cells infected with HIV-1 LAI were incubated for 5 days.” left out

For another data set, the system named is HIV-1 LAI. The data set can be described thus: microbe, parasite or virus in culture. Particulars: for Combination Indices at % HIV Inhibition (Confidence Interval) 50% / Combination Indices at % HIV Inhibition (Confidence Interval) 75% / Combination Indices at % HIV Inhibition (Confidence Interval) 90% / Overall Result (combined anti-HIV effect): Compound 1 + named drug; for Combination Indices at % HIV Inhibition (Confidence Interval) 50% / Combination Indices at % HIV Inhibition (Confidence Interval) 75% / Combination Indices at % HIV Inhibition (Confidence Interval) 90%: 95% confidence interval in parentheses; for Overall Result (combined anti-HIV effect): all ratios, MT-2 cells, HIV-1 LAI; for pEC50: Human immunodeficiency virus 1, MT2, 120 h. How it is done:
as §1, §2, §3, §4, §5, §6, §7, §8

[1] abbreviates: Compound 1 + CCR5 inhibitor, EC50 ratio 1:1, PM-1 cells, HIV-1 Bal.
Setting [2] is: Compound 1 + CCR5 inhibitor, EC50 ratio 1:2.5, PM-1 cells, HIV-1 Bal.
The mark [3] stands for this setting: Compound 1 + CCR5 inhibitor, EC50 ratio 2.5:1, PM-1 cells, HIV-1 Bal.
Setting [4] is: EC50 ratio 1:1 (Compound 1:comparator).
Where [5] appears, read: EC50 ratio 1:2.5 (Compound 1:comparator).
Setting [6] is: EC50 ratio 2.5:1 (Compound 1:comparator).

Regarding `CCO/N=C(\c1ccc(Br)cc1)C1CCN(C2(C)CCN(C(=O)c3c(C)cc[n+]([O-])c3C)CC2)CC1` [SchC], the “Combination Indices at % HIV Inhibition (Confidence Interval) 50%” value is recorded as 0.19 (0.14, 0.25) in the data set on HIV-1 Bal (setting [1]); 0.50 (0.38, 0.61) in the data set on HIV-1 Bal (setting [2]); 0.08 (0.05, 0.11) in the data set on HIV-1 Bal (setting [3]). Also, the “Combination Indices at % HIV Inhibition (Confidence Interval) 75%” value in the data set on HIV-1 Bal (setting [1]) is 0.46 (0.29, 0.63); with HIV-1 Bal (setting [2]), 0.92 (0.64, 1.21); in the data set with HIV-1 Bal (setting [3]) it was 0.21 (0.14, 0.28). Also, the “Combination Indices at % HIV Inhibition (Confidence Interval) 90%” value is reported as 1.12 (0.4, 1.83) in the data set on HIV-1 Bal (setting [1]); 1.74 (0.83, 2.65) in the data set with HIV-1 Bal (setting [2]); 0.54 (0.21, 0.88) with HIV-1 Bal (setting [3]). In addition, the “Overall Result (combined anti-HIV effect)” value (shortened to “Overall Result”) with HIV-1 Bal (Compound 1 + CCR5 inhibitor, all ratios, PM-1 cells, HIV-1 Bal) was “Additive-”. For the same compound, the pEC50 with HIV-1 Bal (single drug, PM-1 cells infected with HIV-1 Bal, 6 days, p24 assay) was 9.05.

Take `CON(Cc1ccc(F)cc1)C(=O)C=C(O)C(=O)O` [Compound 2, 3-[(4-Fluorobenzyl)methoxycarbamoyl]-2-hydroxyacrylic acid]: the “Cytotoxicity of the drug combination” value with uninfected cells is “No significant cytotoxicity”. In the data set on HIV-1 LAI (setting [4]), the “Combination Indices at % HIV Inhibition (Confidence Interval) 50%” value was 0.48 (0.39, 0.58); the “Combination Indices at % HIV Inhibition (Confidence Interval) 75%” value was 0.51 (0.37, 0.65); the “Combination Indices at % HIV Inhibition (Confidence Interval) 90%” value is 0.54 (0.31, 0.76). In addition, in the data set on HIV-1 LAI (setting [5]), the “Combination Indices at % HIV Inhibition (Confidence Interval) 50%” value is 0.44 (0.36, 0.53); the “Combination Indices at % HIV Inhibition (Confidence Interval) 75%” value is given as 0.51 (0.37, 0.65); the “Combination Indices at % HIV Inhibition (Confidence Interval) 90%” value is reported as 0.59 (0.34, 0.85). In addition, in the data set on HIV-1 LAI (setting [6]), the “Combination Indices at % HIV Inhibition (Confidence Interval) 50%” value is listed as 0.50 (0.36, 0.63); the “Combination Indices at % HIV Inhibition (Confidence Interval) 75%” value is 0.70 (0.44, 0.97); the “Combination Indices at % HIV Inhibition (Confidence Interval) 90%” value is on record as 1.00 (0.41, 1.59). In the data set on HIV-1 LAI, the “Overall Result” value is on record as “moderate synergistic” and the pEC50 is 7.10. The “Overall Result” value in the data set on HIV-1 LAI (listed as BMS-538203) is recorded as “Moderate-”.

For `CC(C)CN(C[C@@H](O)[C@H](Cc1ccccc1)NC(=O)O[C@H]1CCOC1)S(=O)(=O)c1ccc(N)cc1` [Amprenavir, amprenavir], in the data set on HIV-1 LAI (setting [4]), the “Combination Indices at % HIV Inhibition (Confidence Interval) 50%” value is recorded as 0.14 (0.11, 0.17); the “Combination Indices at % HIV Inhibition (Confidence Interval) 75%” value was 0.35 (0.26, 0.45); the “Combination Indices at % HIV Inhibition (Confidence Interval) 90%” value is reported as 0.87 (0.46, 1.28). For the same compound, in the data set with HIV-1 LAI (setting [5]), the “Combination Indices at % HIV Inhibition (Confidence Interval) 50%” value is given as 0.13 (0.09, 0.17); the “Combination Indices at % HIV Inhibition (Confidence Interval) 75%” value is given as 0.27 (0.17, 0.38); the “Combination Indices at % HIV Inhibition (Confidence Interval) 90%” value was 0.58 (0.19, 0.97). Also, in the data set on HIV-1 LAI (setting [6]), the “Combination Indices at % HIV Inhibition (Confidence Interval) 50%” value is 0.46 (0.32, 0.60); the “Combination Indices at % HIV Inhibition (Confidence Interval) 75%” value is recorded as 0.79 (0.46, 1.11); the “Combination Indices at % HIV Inhibition (Confidence Interval) 90%” value is recorded as 1.33 (0.42, 2.25). Also, in the data set on HIV-1 LAI, the “Overall Result” value is listed as “Additive-” and the pEC50 is 7.96.

Turning to `Cc1cn([C@H]2C[C@H](N=[N+]=[N-])[C@@H](CO)O2)c(=O)[nH]c1=O` [Zidovudine, zidovudine], in the data set on HIV-1 LAI (setting [4]), the “Combination Indices at % HIV Inhibition (Confidence Interval) 50%” value was 0.25 (0.17, 0.34); the “Combination Indices at % HIV Inhibition (Confidence Interval) 75%” value is reported as 0.53 (0.29, 0.78); the “Combination Indices at % HIV Inhibition (Confidence Interval) 90%” value was 1.13 (0.24, 2.02). Moreover, in the data set with HIV-1 LAI (setting [5]), the “Combination Indices at % HIV Inhibition (Confidence Interval) 50%” value was 0.46 (0.36, 0.56); the “Combination Indices at % HIV Inhibition (Confidence Interval) 75%” value is reported as 0.52 (0.36, 0.68); the “Combination Indices at % HIV Inhibition (Confidence Interval) 90%” value was 0.59 (0.29, 0.89). Besides, in the data set with HIV-1 LAI (setting [6]), the “Combination Indices at % HIV Inhibition (Confidence Interval) 50%” value is on record as 0.37 (0.28, 0.47); the “Combination Indices at % HIV Inhibition (Confidence Interval) 75%” value is reported as 0.49 (0.32, 0.67); the “Combination Indices at % HIV Inhibition (Confidence Interval) 90%” value was 0.66 (0.28, 1.05). For the same compound, in the data set with HIV-1 LAI, the “Overall Result” value is listed as “Additive-” and the pEC50 was 9.00.

As to `CC(C)(C)NC(=O)[C@@H]1CN(Cc2cccnc2)CCN1C[C@@H](O)C[C@@H](Cc1ccccc1)C(=O)N[C@H]1c2ccccc2C[C@H]1O` [Indinavir, indinavir], in the data set on HIV-1 LAI (setting [4]), the “Combination Indices at % HIV Inhibition (Confidence Interval) 50%” value is given as 0.41 (0.26, 0.56); the “Combination Indices at % HIV Inhibition (Confidence Interval) 75%” value is given as 0.69 (0.34, 1.04); the “Combination Indices at % HIV Inhibition (Confidence Interval) 90%” value is recorded as 1.59 (0.29, 2.90). Further, in the data set on HIV-1 LAI (setting [5]), the “Combination Indices at % HIV Inhibition (Confidence Interval) 50%” value is 0.30 (0.18, 0.41); the “Combination Indices at % HIV Inhibition (Confidence Interval) 75%” value is reported as 0.62 (0.32, 0.92); the “Combination Indices at % HIV Inhibition (Confidence Interval) 90%” value is 1.96 (0.29, 3.64). Moreover, in the data set on HIV-1 LAI (setting [6]), the “Combination Indices at % HIV Inhibition (Confidence Interval) 50%” value is given as 0.05 (0.03, 0.06); the “Combination Indices at % HIV Inhibition (Confidence Interval) 75%” value is given as 0.16 (0.13, 0.20); the “Combination Indices at % HIV Inhibition (Confidence Interval) 90%” value is given as 0.68 (0.39, 0.98). Besides, in the data set on HIV-1 LAI, the “Overall Result” value is given as “Additive-” and the pEC50 is 8.52.

Usually pEC50 stands for −log10 of the EC50, conventionally taken in molar units.

The values are drawn from patent US7776863B2, “Methods of treating HIV infection” (priority 2004, dated 2010).
